The supplement of paper PMC10307832

Key:
Test in all cases: relative viability (nuclei count vs DMSO), 5 days (fraction); higher = more cells survive
R406 + Dasatinib = compound: COc1cc(Nc2ncc(F)c(Nc3ccc4c(n3)NC(=O)C(C)(C)O4)n2)cc(OC)c1OC [R406] + Cc1nc(Nc2ncc(C(=O)Nc3c(C)cccc3Cl)s2)cc(N2CCN(CCO)CC2)n1 [Dasatinib] (partner 0.075 µM)
Outline: (§1)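 The day after seeding in 1536-well plates, lung cancer cell lines were treated by pin tool with a single drug, or with a fixed anchor-drug dose together with five library-drug doses (not always all listed) in √10 steps. After 5 days, a combined fix-and-stain solution (final 0.05% Triton X-100, 1% formaldehyde, 1 ug/ml Hoechst) was added. Nuclei counted on 4× images gave relative viability as treated counts over vehicle counts, reported as the median of duplicate plates.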

Daporinad + Foretinib = compound: O=C(/C=C/c1cccnc1)NCCCCC1CCN(C(=O)c2ccccc2)CC1 [Daporinad] + COc1cc2c(Oc3ccc(NC(=O)C4(C(=O)Nc5ccc(F)cc5)CC4)cc3F)ccnc2cc1OCCCN1CCOCC1 [Foretinib] (partner 0.25 µM)
Outline: as §1

R406 + Alpelisib = compound: COc1cc(Nc2ncc(F)c(Nc3ccc4c(n3)NC(=O)C(C)(C)O4)n2)cc(OC)c1OC [R406] + Cc1nc(NC(=O)N2CCC[C@H]2C(N)=O)sc1-c1ccnc(C(C)(C)C(F)(F)F)c1 [Alpelisib] (partner 2 µM)
Outline: as §1

Daporinad + Crizotinib = compound: O=C(/C=C/c1cccnc1)NCCCCC1CCN(C(=O)c2ccccc2)CC1 [Daporinad] + C[C@@H](Oc1cc(-c2cnn(C3CCNCC3)c2)cnc1N)c1c(Cl)ccc(F)c1Cl [Crizotinib] (partner 1 µM)
Outline: as §1

Cell Line | relative viability (R406 + Dasatinib; first compound 0.08 µM) | relative viability (R406 + Dasatinib; first compound 0.253 µM) | relative viability (R406 + Dasatinib; first compound 0.8 µM) | relative viability (R406 + Dasatinib; first compound 8 µM) | relative viability (Daporinad + Foretinib; first compound 0.0005 µM) | relative viability (Daporinad + Foretinib; first compound 0.001581 µM) | relative viability (Daporinad + Foretinib; first compound 0.005 µM) | relative viability (Daporinad + Foretinib; first compound 0.01581 µM) | relative viability (R406 + Alpelisib; first compound 0.08 µM) | relative viability (R406 + Alpelisib; first compound 0.253 µM) | relative viability (R406 + Alpelisib; first compound 0.8 µM) | relative viability (R406 + Alpelisib; first compound 2.53 µM) | relative viability (R406 + Alpelisib; first compound 8 µM) | relative viability (Daporinad + Crizotinib; first compound 0.0005 µM) | relative viability (Daporinad + Crizotinib; first compound 0.001581 µM) | relative viability (Daporinad + Crizotinib; first compound 0.005 µM) | relative viability (Daporinad + Crizotinib; first compound 0.01581 µM) | relative viability (R406 + Dasatinib; first compound 2.53 µM)
NCI-H1915 | 0.301 | 0.321 | 0.31 | 0.269 | 1.16 | 1.07 | 1.17 | 1.08 | 1.08 | 1.12 | 1.04 | 1.02 | 1.01 | 0.911 | 0.933 | 0.982 | 0.915 | 
NCI-H1944 | 0.22 | 0.207 | 0.209 | 0.153 | 0.897 | 0.903 | 0.971 | 0.945 | 0.758 | 0.84 | 0.757 | 0.652 | 0.512 | 1.16 | 1.13 | 1.24 | 1.18 | 0.164
NCI-H1975 | 0.377 | 0.479 | 0.379 | 0.112 | 0.892 | 0.952 | 0.966 | 0.931 | 0.624 | 0.598 | 0.682 | 0.276 | 0.157 | 0.996 | 0.899 | 1.12 | 0.881 | 0.174
NCI-H1993 | 0.564 | 0.631 | 0.704 | 0.453 | 0.749 | 0.741 | 0.746 | 0.918 | 0.692 | 0.741 | 0.772 | 0.653 | 0.599 | 0.954 | 0.941 | 1.01 | 1.08 | 0.316
NCI-H2009 | 0.25 | 0.302 | 0.328 | 0.13 | 1.16 | 1.24 | 1.23 | 0.897 | 1.18 | 1.22 | 1.24 | 1.05 | 1.05 | 1.02 | 1.04 | 1.06 | 0.827 | 0.182
NCI-H2023 | 0.519 | 0.642 | 0.699 | 0.0963 | 0.818 | 0.682 | 0.743 | 0.975 | 0.541 | 0.572 | 0.685 | 0.409 | 0.474 | 0.612 | 0.595 | 0.631 | 0.59 | 0.357
NCI-H2085 | 0.249 | 0.283 | 0.251 | 0.179 | 0.872 | 0.973 | 1.11 | 0.781 | 0.971 | 1.02 | 1.05 | 0.829 | 0.612 | 0.874 | 0.825 | 0.868 | 0.841 | 0.222
NCI-H2087 | 0.782 | 0.903 | 1.15 | 0.481 | 1.1 | 1.3 | 1.19 | 0.978 | 0.959 | 1.06 | 1.11 | 1.09 | 0.757 | 0.75 | 0.708 | 0.945 | 0.674 | 
NCI-H2126 | 0.6 | 0.619 | 0.596 | 0.243 | 1.24 | 1.15 | 1.06 | 1.34 | 0.721 | 0.851 | 0.75 | 0.723 | 0.625 | 1.06 | 1.03 | 1.09 | 1.01 | 0.496
